Experimental data from ChEMBL document CHEMBL1156471, “Targeting host cell furin proprotein convertases as a therapeutic strategy against bacterial toxins and viral pathogens” (J Biol Chem, 2007).
pKi: −log10 of the molar value. Non-standard residues stand in square brackets, D forms with d. Residues, ends and D or L forms follow the SMILES beside them. Nle = CCCC[C@H](N)C(=O)O; Ac5c = NC1(C(=O)O)CCCC1; Ahx = NCCCCCC(=O)O; βAla = NCCC(=O)O; Sar = CNCC(=O)O

What follows are compounds tested against Furin (Homo sapiens, UniProt P09958).
Chain of Furin (P09958 whole entry): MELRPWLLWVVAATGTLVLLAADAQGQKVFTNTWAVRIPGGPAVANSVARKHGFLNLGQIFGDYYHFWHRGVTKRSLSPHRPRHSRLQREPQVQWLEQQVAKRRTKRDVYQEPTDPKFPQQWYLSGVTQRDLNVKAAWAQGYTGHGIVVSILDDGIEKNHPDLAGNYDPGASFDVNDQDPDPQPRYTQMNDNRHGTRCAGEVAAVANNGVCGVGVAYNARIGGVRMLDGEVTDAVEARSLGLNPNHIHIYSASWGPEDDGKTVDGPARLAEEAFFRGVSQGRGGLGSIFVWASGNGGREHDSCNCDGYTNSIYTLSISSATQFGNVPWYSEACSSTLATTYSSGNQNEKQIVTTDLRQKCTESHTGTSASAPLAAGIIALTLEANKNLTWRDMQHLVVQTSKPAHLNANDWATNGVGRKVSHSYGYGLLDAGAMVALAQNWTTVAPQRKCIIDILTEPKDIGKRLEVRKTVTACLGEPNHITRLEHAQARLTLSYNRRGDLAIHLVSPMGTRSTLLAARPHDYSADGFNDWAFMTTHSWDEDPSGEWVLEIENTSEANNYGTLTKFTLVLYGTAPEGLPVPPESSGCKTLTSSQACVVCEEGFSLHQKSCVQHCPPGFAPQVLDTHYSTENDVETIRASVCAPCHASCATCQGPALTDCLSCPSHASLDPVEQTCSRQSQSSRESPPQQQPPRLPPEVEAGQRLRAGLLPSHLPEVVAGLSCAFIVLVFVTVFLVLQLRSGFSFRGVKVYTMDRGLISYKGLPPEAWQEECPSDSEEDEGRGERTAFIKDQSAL
For `C[C@@H](O)[C@H](N)C(=O)N1CCC[C@H]1C(=O)N[C@@H](CCCNC(=N)N)C(=O)NCCCCCC(=O)N[C@@H](CCCNC(=N)N)C(=O)N[C@@H](CCCNC(=N)N)C(=O)N[C@@H](CCCNC(=N)N)C(=O)N[C@@H](CCCCN)C(=O)N[C@@H](CCCCN)C(=O)N[C@@H](CCCNC(=N)N)C(=O)NCC(=O)O`, the pKi was < 7.00. In the case of `C[C@@H](O)[C@H](N)C(=O)N1CCC[C@H]1C(=O)N[C@@H](CCCNC(=N)N)C(=O)NCCC(=O)N[C@@H](CCCNC(=N)N)C(=O)N[C@@H](CCCNC(=N)N)C(=O)N[C@@H](CCCNC(=N)N)C(=O)N[C@@H](CCCCN)C(=O)N[C@@H](CCCCN)C(=O)N[C@@H](CCCNC(=N)N)C(=O)NCC(=O)O`, the pKi was < 7.00. With `C[C@H](N)C(=O)N[C@@H](C)C(=O)N[C@@H](C)C(=O)N[C@@H](CCC(=O)O)C(=O)N[C@@H](CCCNC(=N)N)C(=O)N[C@@H](CCCNC(=N)N)C(=O)N[C@@H](CCCNC(=N)N)C(=O)N[C@@H](CCCCN)C(=O)N[C@@H](CCCCN)C(=O)N[C@@H](CCCNC(=N)N)C(=O)N(C)CC(=O)O` (H-AAAERRRKKR[Sar]-OH) the pKi was < 7.00. `C[C@H](N)C(=O)N[C@@H](C)C(=O)N[C@@H](CCCN=C(N)N)C(=O)N[C@@H](CCC(=O)O)C(=O)N[C@@H](CCCN=C(N)N)C(=O)N[C@@H](CCCN=C(N)N)C(=O)N[C@@H](CCCN=C(N)N)C(=O)N[C@@H](CCCCN)C(=O)N[C@@H](CCCCN)C(=O)N[C@@H](CCCN=C(N)N)C(=O)N(C)CC(=O)O` (H-AARERRRKKR[Sar]-OH) was tested, and the pKi was < 7.00. In the case of `C[C@H](N)C(=O)N1CCC[C@H]1C(=O)N[C@@H](CCCNC(=N)N)C(=O)N[C@@H](CCC(=O)O)C(=O)N[C@@H](CCCNC(=N)N)C(=O)N[C@@H](CCCNC(=N)N)C(=O)N[C@@H](CCCNC(=N)N)C(=O)N[C@@H](CCCCN)C(=O)N[C@@H](CCCCN)C(=O)N[C@@H](CCCNC(=N)N)C(=O)N(C)CC(=O)O` (H-APRERRRKKR[Sar]-OH), the pKi was < 7.00. With `C[C@H](NC(=O)[C@H](C)NC(=O)[C@@H](N)[C@@H](C)O)C(=O)N[C@@H](CCC(=O)O)C(=O)N[C@@H](CCCNC(=N)N)C(=O)N[C@@H](CCCNC(=N)N)C(=O)N[C@@H](CCCNC(=N)N)C(=O)N[C@@H](CCCCN)C(=O)N[C@@H](CCCCN)C(=O)N[C@@H](CCCNC(=N)N)C(=O)N(C)CC(=O)O` (H-TAAERRRKKR[Sar]-OH) the pKi was < 7.00. For `C[C@H](NC(=O)[C@@H](N)[C@@H](C)O)C(=O)N[C@@H](CCCNC(=N)N)C(=O)N[C@@H](CCC(=O)O)C(=O)N[C@@H](CCCNC(=N)N)C(=O)N[C@@H](CCCNC(=N)N)C(=O)N[C@@H](CCCNC(=N)N)C(=O)N[C@@H](CCCCN)C(=O)N[C@@H](CCCCN)C(=O)N[C@@H](CCCNC(=N)N)C(=O)N(C)CC(=O)O` (H-TARERRRKKR[Sar]-OH), the pKi was < 7.00. `C[C@H](NC(=O)[C@H](C)NC(=O)[C@@H]1CCCN1C(=O)[C@@H](N)[C@@H](C)O)C(=O)N[C@@H](C)C(=O)N[C@@H](CCCNC(=N)N)C(=O)N[C@@H](CCCNC(=N)N)C(=O)N[C@@H](CCCCN)C(=O)N[C@@H](CCCCN)C(=O)N[C@@H](CCCNC(=N)N)C(=O)N(C)CC(=O)O` (H-TPAAARRKKR[Sar]-OH) was tested, and the pKi was < 7.00. In the case of `C[C@H](NC(=O)[C@H](C)NC(=O)[C@@H]1CCCN1C(=O)[C@@H](N)[C@@H](C)O)C(=O)N[C@@H](CCCN=C(N)N)C(=O)N[C@@H](CCCN=C(N)N)C(=O)N[C@@H](CCCN=C(N)N)C(=O)N[C@@H](CCCCN)C(=O)N[C@@H](CCCCN)C(=O)N[C@@H](CCCN=C(N)N)C(=O)N(C)CC(=O)O` (H-TPAARRRKKR[Sar]-OH), the pKi was < 7.00. With `C[C@H](NC(=O)[C@@H]1CCCN1C(=O)[C@@H](N)[C@@H](C)O)C(=O)N[C@@H](CCC(=O)O)C(=O)N[C@@H](CCCNC(=N)N)C(=O)N[C@@H](CCCNC(=N)N)C(=O)N[C@@H](CCCNC(=N)N)C(=O)N[C@@H](CCCCN)C(=O)N[C@@H](CCCCN)C(=O)N[C@@H](CCCNC(=N)N)C(=O)N(C)CC(=O)O` (H-TPAERRRKKR[Sar]-OH) the pKi was < 7.00. With `CSC[C@H](NC(=O)[C@H](CCCNC(=N)N)NC(=O)[C@H](CCCCN)NC(=O)[C@H](CCCCN)NC(=O)[C@H](CCCNC(=N)N)NC(=O)[C@H](CCCNC(=N)N)NC(=O)[C@H](CCCNC(=N)N)NC(=O)[C@H](C)NC(=O)[C@H](CCCNC(=N)N)NC(=O)[C@H](CCC(N)=O)NC(=O)[C@@H]1CCCN1C(=O)[C@@H](N)[C@@H](C)O)C(=O)O` (H-TPQRARRRKKRC(Me)-OH) the pKi was 7.03. In the case of `C[C@H](NC(=O)[C@H](CCCNC(=N)N)NC(=O)[C@H](CCC(N)=O)NC(=O)[C@@H]1CCCN1C(=O)[C@@H](N)[C@@H](C)O)C(=O)N[C@@H](CCCNC(=N)N)C(=O)N[C@@H](CCCNC(=N)N)C(=O)N[C@@H](CCCNC(=N)N)C(=O)N[C@@H](CCCCN)C(=O)N[C@@H](CCCCN)C(=O)N[C@@H](CCCNC(=N)N)C(=O)NC1(C(=O)O)CCCC1` (H-TPQRARRRKKR[Ac5c]-OH), the pKi was < 7.00. For `C[C@H](NC(=O)[C@H](CCCNC(=N)N)NC(=O)[C@H](CCC(N)=O)NC(=O)[C@@H]1CCCN1C(=O)[C@@H](N)[C@@H](C)O)C(=O)N[C@@H](CCCNC(=N)N)C(=O)N[C@@H](CCCNC(=N)N)C(=O)N[C@@H](CCCNC(=N)N)C(=O)N[C@@H](CCCCN)C(=O)N[C@@H](CCCCN)C(=O)N[C@@H](CCCNC(=N)N)C(=O)NCCCCCC(=O)O` (H-TPQRARRRKKR[Ahx]-OH), the pKi was < 7.00. `CCCC[C@H](NC(=O)[C@H](CCCN=C(N)N)NC(=O)[C@H](CCCCN)NC(=O)[C@H](CCCCN)NC(=O)[C@H](CCCN=C(N)N)NC(=O)[C@H](CCCN=C(N)N)NC(=O)[C@H](CCCN=C(N)N)NC(=O)[C@H](C)NC(=O)[C@H](CCCN=C(N)N)NC(=O)[C@H](CCC(N)=O)NC(=O)[C@@H]1CCCN1C(=O)[C@@H](N)[C@@H](C)O)C(=O)O` (H-TPQRARRRKKR[Nle]-OH) was tested, and the pKi was < 7.00. For `C[C@H](NC(=O)[C@H](CCCN=C(N)N)NC(=O)[C@H](CCC(N)=O)NC(=O)[C@@H]1CCCN1C(=O)[C@@H](N)[C@@H](C)O)C(=O)N[C@@H](CCCN=C(N)N)C(=O)N[C@@H](CCCN=C(N)N)C(=O)N[C@@H](CCCN=C(N)N)C(=O)N[C@@H](CCCCN)C(=O)N[C@@H](CCCCN)C(=O)N[C@@H](CCCN=C(N)N)C(=O)NCCC(=O)O` (H-TPQRARRRKKR[βAla]-OH), the pKi was < 7.00. For `C[C@H](NC(=O)[C@H](C)NC(=O)[C@H](CCCNC(=N)N)NC(=O)[C@@H]1CCCN1C(=O)[C@@H](N)[C@@H](C)O)C(=O)N[C@@H](CCCNC(=N)N)C(=O)N[C@@H](CCCNC(=N)N)C(=O)N[C@@H](CCCCN)C(=O)N[C@@H](CCCCN)C(=O)N[C@@H](CCCNC(=N)N)C(=O)N(C)CC(=O)O` (H-TPRAARRKKR[Sar]-OH), the pKi was < 7.00. With `C[C@H](NC(=O)[C@H](C)NC(=O)[C@H](CCC(=O)O)NC(=O)[C@H](CCCNC(=N)N)NC(=O)[C@@H]1CCCN1C(=O)[C@@H](N)[C@@H](C)O)C(=O)N[C@@H](C)C(=O)N[C@@H](CCCCN)C(=O)N[C@@H](CCCCN)C(=O)N[C@@H](CCCNC(=N)N)C(=O)N(C)CC(=O)O` (H-TPREAAAKKR[Sar]-OH) the pKi was < 7.00. `C[C@H](NC(=O)[C@H](C)NC(=O)[C@H](CCC(=O)O)NC(=O)[C@H](CCCN=C(N)N)NC(=O)[C@@H]1CCCN1C(=O)[C@@H](N)[C@@H](C)O)C(=O)N[C@@H](CCCN=C(N)N)C(=O)N[C@@H](CCCCN)C(=O)N[C@@H](CCCCN)C(=O)N[C@@H](CCCN=C(N)N)C(=O)N(C)CC(=O)O` (H-TPREAARKKR[Sar]-OH) was tested, and the pKi was < 7.00. With `C[C@H](NC(=O)[C@H](CCC(=O)O)NC(=O)[C@H](CCCNC(=N)N)NC(=O)[C@@H]1CCCN1C(=O)[C@@H](N)[C@@H](C)O)C(=O)N[C@@H](CCCNC(=N)N)C(=O)N[C@@H](CCCNC(=N)N)C(=O)N[C@@H](CCCCN)C(=O)N[C@@H](CCCCN)C(=O)N[C@@H](CCCNC(=N)N)C(=O)N(C)CC(=O)O` (H-TPREARRKKR[Sar]-OH) the pKi was < 7.00. `C[C@H](NC(=O)[C@H](C)NC(=O)[C@H](CCCNC(=N)N)NC(=O)[C@H](CCC(=O)O)NC(=O)[C@H](CCCNC(=N)N)NC(=O)[C@@H]1CCCN1C(=O)[C@@H](N)[C@@H](C)O)C(=O)N[C@@H](CCCCN)C(=O)N[C@@H](CCCCN)C(=O)N[C@@H](CCCNC(=N)N)C(=O)N(C)CC(=O)O` (H-TPRERAAKKR[Sar]-OH) was tested, and the pKi was < 7.00. With `C[C@H](NC(=O)[C@H](CCCNC(=N)N)NC(=O)[C@H](CCC(=O)O)NC(=O)[C@H](CCCNC(=N)N)NC(=O)[C@@H]1CCCN1C(=O)[C@@H](N)[C@@H](C)O)C(=O)N[C@@H](CCCNC(=N)N)C(=O)N[C@@H](CCCCN)C(=O)N[C@@H](CCCCN)C(=O)N[C@@H](CCCNC(=N)N)C(=O)N(C)CC(=O)O` (H-TPRERARKKR[Sar]-OH) the pKi was < 7.00. For `C[C@H](NC(=O)[C@H](C)NC(=O)[C@H](CCCNC(=N)N)NC(=O)[C@H](CCCNC(=N)N)NC(=O)[C@H](CCC(=O)O)NC(=O)[C@H](CCCNC(=N)N)NC(=O)[C@@H]1CCCN1C(=O)[C@@H](N)[C@@H](C)O)C(=O)N[C@@H](CCCCN)C(=O)N[C@@H](CCCNC(=N)N)C(=O)N(C)CC(=O)O` (H-TPRERRAAKR[Sar]-OH), the pKi was < 7.00. In the case of `C[C@H](NC(=O)[C@H](CCCNC(=N)N)NC(=O)[C@H](CCCNC(=N)N)NC(=O)[C@H](CCC(=O)O)NC(=O)[C@H](CCCNC(=N)N)NC(=O)[C@@H]1CCCN1C(=O)[C@@H](N)[C@@H](C)O)C(=O)N[C@@H](CCCCN)C(=O)N[C@@H](CCCCN)C(=O)N[C@@H](CCCNC(=N)N)C(=O)N(C)CC(=O)O` (H-TPRERRAKKR[Sar]-OH), the pKi was < 7.00. For `C[C@H](NC(=O)[C@H](CCCNC(=N)N)NC(=O)[C@H](CCCNC(=N)N)NC(=O)[C@H](CCCNC(=N)N)NC(=O)[C@H](CCC(=O)O)NC(=O)[C@H](CCCNC(=N)N)NC(=O)[C@@H]1CCCN1C(=O)[C@@H](N)[C@@H](C)O)C(=O)N[C@@H](CCCCN)C(=O)N[C@@H](CCCNC(=N)N)C(=O)N(C)CC(=O)O` (H-TPRERRRAKR[Sar]-OH), the pKi was < 7.00. `C[C@H](NC(=O)[C@H](CCCCN)NC(=O)[C@H](CCCNC(=N)N)NC(=O)[C@H](CCCNC(=N)N)NC(=O)[C@H](CCCNC(=N)N)NC(=O)[C@H](CCC(=O)O)NC(=O)[C@H](CCCNC(=N)N)NC(=O)[C@@H]1CCCN1C(=O)[C@@H](N)[C@@H](C)O)C(=O)N[C@@H](C)C(=O)N(C)CC(=O)O` (H-TPRERRRKAA[Sar]-OH) was tested, and the pKi was < 7.00. In the case of `C[C@H](NC(=O)[C@H](CCCCN)NC(=O)[C@H](CCCNC(=N)N)NC(=O)[C@H](CCCNC(=N)N)NC(=O)[C@H](CCCNC(=N)N)NC(=O)[C@H](CCC(=O)O)NC(=O)[C@H](CCCNC(=N)N)NC(=O)[C@@H]1CCCN1C(=O)[C@@H](N)[C@@H](C)O)C(=O)N[C@@H](CCCNC(=N)N)C(=O)N(C)CC(=O)O` (H-TPRERRRKAR[Sar]-OH), the pKi was < 7.00.
